This is an account of results in patent US5382430A, “Method for the stimulation of the immune system of an animal by use of limulus test-positive plant glycolipid” (priority 1989, dated 1995).

In assay [1] the test system is TNF. The following applies: prior art statement; cited from earlier work.
In assay [2] the test system is parietal bones of fowl's embryo. As to the kind of experiment: Osteogenesis stimulation: osteoclast activation test, 45Ca leakage (Table 9). As to conditions: 1 unit/ml. How it is done: Stimulation of Osteogenesis
This stimulation was confirmed by an osteolast activation test.
Osteoclast cells are those in charge of absorbing bony tissue which destroy old bones in said tissue. […] As a result, the osteogenesis is presumed to be stimulated.
In the osteoclast activation test, parietal bones of fowl's embryo are used as experimental samples. That is, the parietal bones of fowl's embryo are labelled with ^45 Ca, and are cultured in a medium containing a medicine candidate (treated group) or in a said candidate-free medium (control group), and thereafter the quantity of the ^45 Ca remaining in the bones and that of the ^45 Ca leaked into the medium during culture are determined. The ^45 Ca leakage rates in both tile treated and control groups are calculated according to the following equation:
^45 Ca leakage rate=(Quantity of ^45 Ca leaked)/(Quantity of
remaining ^45 Ca+Quantity of ^45 Ca leaked)
The effect of the candidate is expressed by the following T/C rate:
T/C rate=(Quantity of ^45 Ca leaked in the treated group)/(Quantity of
^45 Ca leaked in the control group) […]
4) The medium (each, 250 μl) was added to 4.5 ml of ACSII scintillator (Amersham Co. In U.K.), and the counting was made on the basis of liquid scintillation to determine the quantity of the 45Ca leaked into the medium. […]

lentinan: in assay [1], the TNF productivity result is reported as “no TNF productivity”.
For `CC(C)C[C@H](NC(=O)[C@@H](O)[C@H](N)Cc1ccccc1)C(=O)O` [Bestatin, ubenimex], in assay [1], the TNF productivity result was “no TNF productivity”.
polysaccharide K [PSK]: the TNF productivity result in assay [1] is given as “no TNF productivity”.
Consider sizofiran [Sonifilan], for which the TNF productivity result in assay [1] was “no TNF productivity”.

B1: parathyroid hormone (protein, UniProt P01270 32-115, looked up)
Parathyroid hormone: SVSEIQLMHNLGKHLNSMERVEWLRKKLQDVHNFVALGAPLAPRDAGSQRPRKKEDNVLVESHEKSLGEADKADVNVLTKAKSQ
notes: Already known parathyroid hormone which is a bony tissue absorbance hormone
Consider B1, for which, in assay [2], the “45Ca leakage, Treated T” value was found to be 4.46 and the T/C rate is recorded as 1.22.
